From patent EP4817611A1, “PHARMACEUTICAL COMPOSITION” (EA Pharma Co., Ltd., priority 2023, dated 2025)

Key:
[1] = One-month stability test in sealed glass vial under three storage conditions; decomposition product 1 by HPLC; format: physicochemical; settings: Compound (2) HCl 62.5 mg + acidic substance 62.5 mg
Protocol: When the hydrochloride of the compound represented by the formula (2) (hereinafter referred to as "Compound (2) HCl") is decomposed, the following decomposition products 1 and 2 are produced. [drawing 9]
The amount of the decomposition product 1 produced was measured over time by HPLC to evaluate the stability of the pharmaceutical composition. The HPLC analysis conditions are as follows. When airtight conditions were employed in the stability test, aluminum packaging was used.
• Detector: UV absorption photometer (measurement wavelength: 256 nm) • Column: InertSustain AQ-C18 HP 3 µm, 3.0 × 150 mm (reverse-phase C18 column) • Column temperature: a constant temperature around 25°C • Mobile phase A: 50 mmol/L ammonium formate buffer solution (pH: 4) • Mobile phase B: 50 mmol/L ammonium formate buffer solution (pH: 4) : acetonitrile = 1:4 • Flow rate: 1.0 ml/min
• Time: 0 → 20 • Mobile phase A (%): 95 → 0 • Mobile phase B (%): 5 → 100
The formulation in Table 5-1 (the types of acidic substances are listed in Table 5-2) was mixed in a mortar to prepare a pharmaceutical composition, which was then sealed in a glass vial, and a one-month stability test was performed under three storage conditions (airtight conditions at 4°C, airtight conditions at 60°C, and open conditions at 60°C). As a reference example, a stability test was also performed on the active ingredient alone (without an acidic substance).

[2] = recorded in the Chemical Book; cited from earlier work

Content of decomposition product 1 (%) (4°C, airtight) ([1]; 4°C, airtight, glass vial) | Content of decomposition product 1 (%) (60°C, airtight) ([1]; 60°C, airtight, glass vial) | Content of decomposition product 1 (%) (60°C, open, 75% RH) ([1]; 60°C, open, 75% RH) | Structure (SMILES) | pKa [2]
0.03 | 0.05 | 0.10 | CC(C)(Cc1ccc(C(=O)Oc2ccc(C(=N)N)cc2F)s1)C(=O)O [Reference example] | –
– | – | – | N[C@@H](CC(=O)O)C(=O)O [aspartic acid] | 1.99
